pKd, pKi: −log10 of the molar value.
Legend:
[1] = target: T1, human orexin 1 receptor (Homo sapiens, UniProt O43613); assay: Radioligand binding assay ([3H]-SB649868 competition), human orexin 1 receptor; conditions: radioligand [3H]-SB649868; read-out: Binding hOx1R Kd
T1 construct: expressed in transfected cells
T1 sequence (O43613 1-425): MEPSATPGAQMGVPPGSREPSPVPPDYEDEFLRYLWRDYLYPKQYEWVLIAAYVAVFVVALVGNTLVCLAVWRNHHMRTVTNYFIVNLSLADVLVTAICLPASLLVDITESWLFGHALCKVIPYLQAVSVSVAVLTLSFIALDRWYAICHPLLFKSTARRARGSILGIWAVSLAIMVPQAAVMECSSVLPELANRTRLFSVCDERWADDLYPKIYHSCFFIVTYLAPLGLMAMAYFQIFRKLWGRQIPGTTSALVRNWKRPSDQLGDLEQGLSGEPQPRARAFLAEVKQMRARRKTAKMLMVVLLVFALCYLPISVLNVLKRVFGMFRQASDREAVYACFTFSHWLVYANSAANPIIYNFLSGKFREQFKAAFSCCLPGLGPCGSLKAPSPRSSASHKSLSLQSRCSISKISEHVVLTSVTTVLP
Description: (§1) Radioligand Binding Assay
(§2) For crude cell membrane preparations, cells (CHO, Chinese hamster ovary or HEK, human embryonic kidney) expressing human orexin 1 or human orexin 2 receptors, were washed with HEPES (10 mM, pH 7.5), scraped off the culture plates with the same buffer, and centrifuged at 4° C. for 5 min at 2500×g. The cell pellet was either stored at −80° C. or used directly. Before the experiments, cell membranes were re-suspended in binding assay buffer (10 mM HEPES, 0.5% (w/v) bovine serum albumin, pH 7.5) by homogenisation with a Polytron homogeniser at 50 Hz for 20 s. Cell membranes were also used as made available by commercial providers.
(§3) Bound radioactivity was measured, and data were analysed with the program XLFIT or Graphpad Prism. Protein concentration was determined according to the Bradford/BioRad Protein Assay Kit.
(§4) In competition experiments, cell homogenates (150 μl) were incubated in assay buffer (10 mM HEPES, pH 7.5, 0.5% (w/v) bovine serum albumin, 5 mM MgCl2, 1 mMCaCl2, and tween 0.05%) for 1 h at room temperature with about 1 nM of the radioligand [^3H]-SB649868, 66 Ci/mmole, 50 μl), and with various concentrations of compounds of the invention (50 μl) in triplicates; non-specific binding was determined in the presence of almorexant (10 μM). Reactions were terminated by vacuum filtration, 3 washes of ice cold wash buffer (Tris-HCl pH 7.4/10 mM, with NaCl 154 mM). Competition data is expressed in Table 1 as Kd [μM].

[2] = target: T2, human orexin 2 receptor (Homo sapiens, UniProt O43614); assay: Radioligand binding assay ([3H]-SB649868 competition), human orexin 2 receptor; conditions: radioligand [3H]-SB649868; read-out: Binding hOx2R Kd
T2 construct: expressed in transfected cells
T2 sequence (O43614 1-444): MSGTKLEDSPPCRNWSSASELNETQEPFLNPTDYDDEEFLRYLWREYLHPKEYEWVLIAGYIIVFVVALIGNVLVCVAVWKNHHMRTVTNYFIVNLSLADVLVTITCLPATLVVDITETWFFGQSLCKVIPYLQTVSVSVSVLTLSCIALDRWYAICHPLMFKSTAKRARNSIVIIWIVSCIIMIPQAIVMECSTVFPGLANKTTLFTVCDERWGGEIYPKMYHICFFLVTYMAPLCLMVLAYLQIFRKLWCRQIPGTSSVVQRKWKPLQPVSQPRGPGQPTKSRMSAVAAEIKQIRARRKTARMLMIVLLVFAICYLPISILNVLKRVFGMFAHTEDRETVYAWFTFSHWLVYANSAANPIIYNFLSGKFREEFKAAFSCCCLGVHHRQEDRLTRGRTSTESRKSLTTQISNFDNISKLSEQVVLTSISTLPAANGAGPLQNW
Description: as §1, §2, §3, §4

[3] = target: T1, human orexin 1 receptor; assay: Calcium accumulation in cells (FLIPR), antagonism of orexin A, human orexin 1 receptor; type: cell-based; conditions: for pKi: calcium accumulation, antagonism of orexin A, Cheng-Prusoff corrected, read-out: FLIPR hOx1R Ki; for inhibition at 10 µM: measured at a concentration of 10 μM of compound, read-out: FLIPR hOx1R % inhibition
[4] = target: T2, human orexin 2 receptor; assay: Calcium accumulation in cells (FLIPR), antagonism of orexin A, human orexin 2 receptor; type: cell-based; conditions: calcium accumulation, antagonism of orexin A, Cheng-Prusoff corrected; read-out: FLIPR hOx2R Ki

In the case of `COc1cc(C)nc(N2CC[C@]3(CCCN(Cc4c[nH]c5ccccc45)C3=O)C2)n1` (single isomer, unassigned) [Example 7.9], the pKd [1] was 7.92, the pKd [2] was 7.92 and the pKi [3] was 8.00. The pKi [4] was 8.72.
`COc1cc(C)nc(N2CC[C@@]3(CCCN(Cc4c[nH]c5ccccc45)C3=O)C2)n1` (single isomer, unassigned) [Example 7.10] gave a pKd [1] of 6.12, a pKd [2] of 6.62 and a pKi [3] of 6.86. The pKi [4] was 7.85.
`Cc1cc(C)nc(N2CCC3(CC2)NCCN(Cc2c[nH]c4ccc(F)cc24)C3=O)n1` [Example 1.4, 9-(4,6-Dimethylpyrimidin-2-yl)-4-((5-fluoro-1H-indol-3-yl)methyl)-1,4,9-triazaspiro[5.5]undecan-5-one] showed a pKd [1] of 6.11, a pKd [2] of 7.77 and a pKi [3] of 6.22. The pKi [4] was 8.22.
With `COc1cccc(-c2nn(C)nc2CN2CCNC3(CCN(c4nc(C)cc(C)n4)CC3)C2=O)c1` [Example 1.5, 9-(4,6-Dimethylpyrimidin-2-yl)-4-((5-(3-methoxyphenyl)-2-methyl-2H-1,2,3-triazol-4-yl)methyl)-1,4,9-triazaspiro[5.5] undecan-5-one] the pKd [1] was 6.03, the pKd [2] was 7.51 and the pKi [3] was 5.83. The pKi [4] was 8.15.
For `COc1cc(C)nc(N2CCC3(CC2)NCCN(Cc2c[nH]c4ccccc24)C3=O)n1` [Example 1.8, 4-((1H-Indol-3-yl)methyl)-9-(4-methoxy-6-methylpyrimidin-2-yl)-1,4,9-triazaspiro[5.5] undecan-5-one], the pKd [1] was 6.17, the pKd [2] was 7.72 and the pKi [3] was 6.04. For the same molecule, the pKi [4] was 8.10.
`COc1cccc(-c2ocnc2CN2CCNC3(CCN(c4nc(C)cc(C)n4)CC3)C2=O)c1` [Example 1.9, 9-(4,6-Dimethylpyrimidin-2-yl)-4-((5-(3-methoxyphenyl)oxazol-4-yl)methyl)-1,4,9-triazaspiro[5.5] undecan-5-one] was tested, and the pKd [1] was 6.40, the pKd [2] was 7.60 and the pKi [3] was 6.64. For the same molecule, the pKi [4] was 8.40.
With `COc1cccc(-c2ocnc2CN2CCNC3(CCN(c4nccc(C)n4)CC3)C2=O)c1` [Example 1.10, 4-((5-(3-Methoxyphenyl)oxazol-4-yl)methyl)-9-(4-methyl-pyrimidin-2-yl)-1,4,9-triazaspiro[5.5] undecan-5-one] the pKd [1] was 5.40, the pKd [2] was 6.79 and the pKi [3] was 5.58. It also gave a pKi [4] of 7.08.
Work on `COc1cccc(-c2ocnc2CN2CCNC3(CCN(c4nc(C)cc(C#N)n4)CC3)C2=O)c1` [Example 1.11, 2-(4-((5-(3-Methoxyphenyl)oxazol-4-yl)methyl)-5-oxo-1,4,9-triazaspiro[5.5]undecan-9-yl)-6-methylpyrimidine-4-carbonitrile] yielded a pKd [1] of 5.65, a pKd [2] of 7.43 and a pKi [3] of 5.58. For the same molecule, the pKi [4] was 8.00.
`COc1cccc(-c2ocnc2CN2CCNC3(CCN(c4nccc(OC)n4)CC3)C2=O)c1` [Example 1.12, 4-((5-(3-Methoxyphenyl)oxazol-4-yl)methyl)-9-(4-methoxy-pyrimidin-2-yl)-1,4,9-triazaspiro[5.5] undecan-5-one] gave a pKd [1] of 6.16, a pKd [2] of 6.64 and a pKi [3] of 6.21. For the same molecule, the pKi [4] was 7.19.
Work on `COc1cccc(-c2oc(C)nc2CN2CCNC3(CCN(c4nc(C)cc(C#N)n4)CC3)C2=O)c1` [Example 1.16, 2-(4-((5-(3-Methoxyphenyl)-2-methyloxazol-4-yl)methyl)-5-oxo-1,4,9-triazaspiro[5.5]undecan-9-yl)-6-methylpyrimidine-4-carbonitrile] yielded a pKd [2] of 6.73, an inhibition at 10 µM [3] of 35% and a pKi [4] of 7.51.
`COc1cccc(-c2sc(C)nc2CN2CCNC3(CCN(c4nc(C)cc(C#N)n4)CC3)C2=O)c1` [Example 1.25, 2-(4-((5-(3-Methoxyphenyl)-2-methylthiazol-4-yl)methyl)-5-oxo-1,4,9-triazaspiro[5.5]undecan-9-yl)-6-methylpyrimidine-4-carbonitrile] gave a pKd [2] of 6.40, an inhibition at 10 µM [3] of 31% and a pKi [4] of 7.12.
`COc1cncc(-c2cn(C)nc2CN2CCNC3(CCN(c4nc(C)cc(C)n4)CC3)C2=O)c1` [Example 1.55, 9-(4,6-Dimethyl-pyrimidin-2-yl)-4-((4-(5-methoxypyridin-3-yl)-1-methyl-1H-pyrazol-3-yl)methyl)-1,4,9-triazaspiro[5.5] undecan-5-one] gave a pKd [1] of 5.23, a pKd [2] of 6.79 and a pKi [4] of 7.80.
For `COCc1noc(-c2ccccc2CN2CCNC3(CCN(c4nc(C)cc(C)n4)CC3)C2=O)n1` [Example 1.63, 9-(4,6-dimethyl-pyrimidin-2-yl)-4-(2-(3-(methoxymethyl)-1,2,4-oxadiazol-5-yl)benzyl)-1,4,9-triazaspiro[5.5] undecan-5-one], the pKd [2] was 6.60, the pKi [3] was 5.39 and the pKi [4] was 7.34.
Molecule `COCc1cccc(-c2nn(C)nc2CN2CCNC3(CCN(c4nc(C)cc(C)n4)CC3)C2=O)c1` [Example 1.76, 9-(4,6-dimethyl-pyrimidin-2-yl)-4-((5-(3-(methoxy-methyl)phenyl)-2-methyl-2H-1,2,3-triazol-4-yl)methyl)-1,4,9-triazaspiro[5.5] undecan-5-one] has a pKd [2] of 6.76, a pKi [3] of 5.79 and a pKi [4] of 7.07.
With `Cc1cc(C)nc(N2CCC3(CC2)OCCN(Cc2n[nH]nc2-c2ccccc2)C3=O)n1` [Example 2.14, 9-(4,6-Dimethylpyrimidin-2-yl)-4-((5-phenyl-2H-1,2,3-triazol-4-yl)methyl)-1-oxa-4,9-diazaspiro[5.5]undecan-5-one] the pKd [2] was 6.62, the pKi [3] was 5.57 and the pKi [4] was 7.30.
Molecule `Cc1cc(C)nc(N2CCC3(CCN(Cc4c[nH]c5ccccc45)C3=O)CC2)n1` [Example 3.1, 2-((1H-Indol-3-yl)methyl)-8-(4,6-dimethylpyrimidin-2-yl)-2,8-diazaspiro[4.5]decan-1-one] has a pKd [2] of 6.64, a pKi [3] of 5.72 and a pKi [4] of 7.49.
Work on `COc1cc(C)nc(N2CCC3(CCN(Cc4c[nH]c5ccccc45)C3=O)CC2)n1` [Example 3.18, 2-(1H-Indol-3-ylmethyl)-8-(4-methoxy-6-methyl-pyrimidin-2-yl)-2,8-diaza-spiro[4.5]decan-1-one] yielded a pKd [2] of 5.99, a pKi [3] of 5.91 and a pKi [4] of 7.43.
In the case of `COc1cc(C)nc(N2CCC3(CCN(Cc4n[nH]c5ccccc45)C3=O)CC2)n1` [Example 3.21, 2-((1H-indazol-3-yl)methyl)-8-(4-methoxy-6-methylpyrimidin-2-yl)-2,8-diazaspiro[4.5]decan-1-one], the pKd [2] was 6.16, the pKi [3] was 6.00 and the pKi [4] was 6.93.
In the case of `Cc1cc(C)nc(N2CCC3(CC2)COC(=O)N3Cc2c[nH]c3ccccc23)n1` [Example 8.24, 1-((1H-Indol-3-yl)methyl)-8-(4,6-dimethylpyrimidin-2-yl)-3-oxa-1,8-diazaspiro[4.5]decan-2-one], the inhibition at 10 µM [3] was 21% and the pKi [4] was 6.35.
`Cc1cncc(N2CCC3(CC2)COC(=O)N3Cc2cccc3[nH]ccc23)n1` [Example 8.25, 1-((1H-Indol-4-yl)methyl)-8-(6-methylpyrazin-2-yl)-3-oxa-1,8-diazaspiro[4.5]decan-2-one] gave an inhibition at 10 µM [3] of under 10% and a pKi [4] of 6.17.
`O=C1CCC2(CCN(c3cnc4ccccc4n3)C2)N1Cc1cccc2[nH]ccc12` (stereo not drawn) [Example 9.1] gave a pKi [3] of 6.18 and a pKi [4] of 5.86.
